From EP1477168A1, “Use of cabergoline in the treatment of restless leg syndrome” (priority 1998, dated 1999)
Structures can show the parent of a compound that is named as a salt.

Legend:
restless leg syndrome = conditions: in vivo; cited from earlier work
RLS [1] = conditions: cited from earlier work
[2] = tested on: restless legs syndrome and periodic leg movements in sleep; conditions: cited from earlier work; for patients who responded: consecutive series of patients
RLS [3] = conditions: treatment of RLS; quote from www.rls.org, March 1999; cited from earlier work
[4] = Half-life and duration of action; format: in vivo; conditions: as stated by the applicant, no method given
restless legs syndrome [5] = experiment: 12-week open label pilot trial: physician's rating (Clinical Global Impressions); format: in vivo; conditions: under cabergoline, 9 patients
Protocol: Following a 2-week baseline period, all patients were treated with cabergoline in an open trial for 12 weeks. Apart from levodopa, patients had to stop taking any medication known to have positive or negative effect on RLS two weeks before baseline (i.e., other dopamine agonists, benzodiazepines, opioids or other psychotropic agents). Patients who were on levodopa therapy were allowed to either stop levodopa prior to study entry or to continue, taper or discontinue levodopa during the study. To prevent well known peripheral dopaminergic side-effects such as nausea, vomiting, vertigo and arterial hypotension domperidone (not available in the United States) was comedicated initially and also tapered if possible. […] Neurological case history, examination, electrocardiogramm, chest x-ray and polysomnography were performed to ensure that selection criteria were fulfilled. A two-night PSG (including one night of adaptation) was performed to evaluate the diagnosis and inclusion/exclusion criteria regardless if patients were on or off levodopa. After a 12-week treatment period patients were studied again for one night in the sleep laboratory. […] In addition patients were monitored by phone calls to note any adverse events and to determine whether to increase the dosage of the study drug, to decrease levodopa and to decrease domperidone. […]

restless legs syndrome [6] = experiment: 12-week open label pilot trial: safety and augmentation; format: in vivo, patients
Protocol: (§1) Following a 2-week baseline period, all patients were treated with cabergoline in an open trial for 12 weeks. Apart from levodopa, patients had to stop taking any medication known to have positive or negative effect on RLS two weeks before baseline (i.e., other dopamine agonists, benzodiazepines, opioids or other psychotropic agents). Patients who were on levodopa therapy were allowed to either stop levodopa prior to study entry or to continue, taper or discontinue levodopa during the study. To prevent well known peripheral dopaminergic side-effects such as nausea, vomiting, vertigo and arterial hypotension domperidone (not available in the United States) was comedicated initially and also tapered if possible. […] Neurological case history, examination, electrocardiogramm, chest x-ray and polysomnography were performed to ensure that selection criteria were fulfilled. A two-night PSG (including one night of adaptation) was performed to evaluate the diagnosis and inclusion/exclusion criteria regardless if patients were on or off levodopa. After a 12-week treatment period patients were studied again for one night in the sleep laboratory. Subjective ratings were obtained at baseline, week 4, week 8 and at the endpoint after 12 weeks. In addition patients were monitored by phone calls to note any adverse events and to determine whether to increase the dosage of the study drug, to decrease levodopa and to decrease domperidone. The time schedule of phone calls was variable and the frequency mostly dependent on the presence of simultaneous levodopa therapy.
Safety. Safety of Cabergoline was assessed to the type and frequency of adverse event, clinically significant changes in laboratory data or ECG and premature discontinuation of study participation. Adverse events were classified as serious versus nonserious and characterized by intensity, relationship to drug treatment, frequency, course and therapeutic intervention.

restless legs syndrome [7] = experiment: 12-week open label pilot trial of cabergoline in RLS patients: polysomnography; format: in vivo
Protocol: In a 12-week open label pilot trial, the effects of a single evening cabergoline-dose on symptoms of RLS were investigated in 9 patients and the results presented here. See also, Stiasny K., Oertel W.H., Schüler P. (1998). Cabergoline in RLS, ENS, Nice, Abstract.
Efficacy was assessed by polysomnography and subjective ratings. All patients previously had experienced partial benefit of a levodopa therapy (either standard or standard and slow release) and in part developed augmentation under levodopa therapy. At study entry all patients were comedicated with domperidone (20 mg TID) and five were still under levodopa therapy (400-800 mg). At the endpoint all patients were on cabergoline monotherapy (mean dose 2.1 mg, range 1 to 4 mg). Domperidone was stopped in all patients due to excellent tolerability. […] Total sleep time was prolonged, sleep latency shortened and sleep efficiency increased. All patients reported significant relief or became free of RLS symptoms.
as §1
Inclusion criteria. Patients were included if they fulfilled the minimal diagnostic criteria according to the International RLS Study Group. After rating clinical symptoms at baseline, patients were referred to polysomnography without any RLS specific treatment other than levodopa. Patients were included if they had more than five PLM per hour of time-in-bed (PLM index) and a sleep efficiency index (total sleep time per hour time-in-bed) of less than 85%.
Exclusion criteria. Patients with signs of any other sleep disorder on PSG, especially sleep apnea syndrome (respiratory disturbances index > 5 per hour total sleep time), were excluded. Subjects receiving neuroleptic, antidepressant or other psychotropic medications or with any severe additional illness (with special consideration to pulmonary fibrosis) or drug abuse were also excluded. […]

restless legs syndrome [8] = experiment: 12-week open label pilot trial: patients' subjective ratings and sleep diaries; format: in vivo
Protocol: as §1
Dosing. Study medication was available in tablets containing 0.5 mg, 1 mg or 2 mg Cabergoline (Cabaseril®, Pharmacia & Upjohn, Erlangen, Germany). Medication was taken 2 hours prior to bedtime. Initial therapy consisted of one 0.5 mg tablet. […] The increased dose could be decreased again if necessary. All patients were initially comedicated with domperidone 20 mg t.i.d. which could be tapered and stopped if possible. Subjects who were pretreated with levodopa were asked to decrease levodopa simultaneously if possible.
Subjective ratings. After each night of recording and at each visit at week 2 and 4, patients rated the severity of illness (normal to extremely ill), the therapeutic effects by rating their global improvements by use of the Patients Global Impressions (general condition very much worse to very much better), the severity of RLS symptoms during the time of falling asleep, during the night and during the day (scale: 0 = not present to 10 = very strong) and sleep satisfaction (very unsatisfied to very satisfied). In addition patients rated their quality of life, concerning well being and complaints during the previous week, using modified 50-mm Hamburger Visual Analogue Scale. Patients also filled in a sleep diary at each study visit rating the following symptoms: global assessment of sleep (very bad to very good night), sleep latency, sleep time, frequency of awakenings and urge to move the legs at time falling asleep, during the night and during the day (scale: 0 = not present to 10 = very strong).

Compound: CC(C)C[C@H]1C(=O)N2CCC[C@H]2[C@]2(O)O[C@](NC(=O)[C@@H]3C=C4c5cccc6[nH]c(Br)c(c56)C[C@H]4N(C)C3)(C(C)C)C(=O)N12 [Bromocriptine]
- patients reporting better subjective improvement in restlessness and paresthesia compared to placebo (restless leg syndrome): 5 of 6
- side effects reported (restless leg syndrome): transient nasal stuffiness and lightheadedness in one patient

Compound: N[C@@H](Cc1ccc(O)c(O)c1)C(=O)O [L-dopa]
- RLS patients with augmentation who required a medication change (RLS [1]; Allen, Earley, Sleep 1996): 50%
- augmentation in PLMS patients (RLS [1]; Allen, Earley, Sleep 1996): 31%
- augmentation in RLS patients (RLS [1]; Allen, Earley, Sleep 1996): 82%
- RLS patients with augmentation reporting 3 major symptoms of increased severity (RLS [1]; of the 22 RLS patients with augmentation): 100%
- patients who responded [2]: 21 of 51

Compound: CCCN1C[C@H](CSC)C[C@@H]2c3cccc4[nH]cc(c34)C[C@H]21 [Pergolide]
- patients who responded [2]: 19 of 26
- patients who suffered from augmentation ([2]; patients treated with pergolide): 15%
- patients who had augmentation ([2]; pergolide patients): 4 of 26

Compound: CCCN1C[C@H](CSC)C[C@@H]2c3cccc4[nH]cc(c34)C[C@H]21 [Permax®, pergolide mesylate]
- people who develop augmentation (RLS [3]): 10%

Compound: C=CCN1C[C@H](C(=O)N(CCCN(C)C)C(=O)NCC)C[C@@H]2c3cccc4[nH]cc(c34)C[C@H]21 [cabergoline, 1((6-allylergolin-8β-yl) -carbony.)-1-(3-(dimethylamino)propyl)-3-ethylurea]
- half life [4]: > 65 h
- half-life ([4]; human, in vivo): 65 h
- Physician's rating of general condition (global improvement, number of patients) (restless legs syndrome [5]): very much better in 5, much better in 3 and minimally better in 1 patients
- augmentation under cabergoline (restless legs syndrome [6]; 12-week treatment period): we did not observe augmentation in our patients
- laboratory data and ECG (restless legs syndrome [6]; 12 weeks): No significant changes
- adverse events probably related to the study drug, total (restless legs syndrome [6]; 12 weeks, 9 patients): 8
- serious side effects and withdrawals (restless legs syndrome [6]; 12 weeks, 9 patients): no serious side effects and no patient withdrew from the study
- patients reporting adverse events probably related to the study drug (restless legs syndrome [6]; of 9 patients): 5 patients
- reversibility of augmentation evoked by levodopa (restless legs syndrome [6]; patients who had developed augmentation under levodopa): reversible under cabergoline in all of our patients
- PLM arousal (restless legs syndrome [7]; Week 12, baseline 51.7 ± 42.3): 6.4 ± 11.2
- PLM arousal index (restless legs syndrome [7]; number of PLM arousals per hour total sleep time, Week 12, baseline 10.4 ± 7.8): 1.0 ± 1.7
- PLM awakening (restless legs syndrome [7]; number of PLM awakenings, Week 12, baseline 9.6 ± 4.9): 1.0 ± 2.0
- PLM index (restless legs syndrome [7]; number of PLM per hour time in bed, Week 12, baseline 27.7 ± 17.1): 3.6 ± 5.3
- No. Of PLM (restless legs syndrome [7]; total number of PLM during time in bed, Week 12, cabergoline monotherapy, baseline 195.8 ± 109.1): 26.4 ± 40.2
- relief of RLS symptoms reported by patients (restless legs syndrome [8]; 12 weeks, 9 patients): All patients reported a significant relief or became free of RLS symptoms
- severity of illness in PGI (number of patients) (restless legs syndrome [8]; cabergoline monotherapy, 9 patients, baseline extremely (2), very (4) or markedly (3) ill): normal (5) or borderline (2) in PGI, only two as moderately ill
- quality of life (Hamburger Visual Analogue Scales) (restless legs syndrome [8]; compared with baseline): much better than under baseline conditions
- sleep satisfaction (number of patients) (restless legs syndrome [8]; endpoint, 9 patients, baseline very (1), markedly (6) or moderately (2) unsatisfied): 2 were very, 4 markedly, 1 moderately satisfied and only 2 moderately unsatisfied
- had to get up (restless legs syndrome [8]; sleep diaries, cabergoline monotherapy, baseline 2.1): 0.6 times per night
- General condition in PGI (number of patients) (restless legs syndrome [8]; under cabergoline, 9 patients): very much better (6) or much better (3)
- global quality of the previous night (sleep diaries) (restless legs syndrome [8]; zero (very bad) to 10 (very good) scale, endpoint, baseline 3.1): 6.9
